Measurements published in patent publication US8530404B2, “Compounds and methods for treatment of cancer” (FibroGen, Inc., priority 2005, dated 2013).
Marks after values point to notes of the source that are not given here.

Tests used:
[1] = tested on: human A549 lung tumors; test: Subcutaneously implanted human A549 lung tumor mouse xenograft (Example 2); type: in vivo
[2] = Body weight in H-460 xenograft mice (Example 1); type: in vivo, mouse; conditions: 20 mg/kg PO
Procedure: Sizes of the primary tumors were measured through the skin with calipers once per week. Tumor volumes were calculated by the formula V═(W^2*L)/2. Body weight of the mice in each group was also measured once per week during the experimental period. All animals were sacrificed following thirty-two days of treatment. Primary tumors were excised and weighed on an electronic balance. Blood samples were taken during terminal sacrifice and placed in microhematocrit tubes containing EDTA. Complete Blood Counts (CBC) and reticulocyte analysis were performed with the Cell Dyn 3700 analyzer (Abbott Diagnostics), as described by the manufacturer.
Thus, differences in tumor progression as measured by mean tumor volumes could not be attributed to any generalized toxicity or suppression of normal metabolism that might have been detected by changes in body weights.

[3] = tested on: human H-460-GFP lung tumors; test: Orthotopically implanted human H-460-GFP lung tumor mouse xenograft, survival and metastasis (Example 3); type: in vivo; conditions: 20 mg/kg; for Metastatic Incidence (proportion of animals exhibiting mediastinal lymph node metastasis): vehicle 9/10
Procedure: To examine the effect of methods and compounds of the present invention in a metastatic model of tumor progression, compounds of the invention were administered to orthotopically implanted H-460-GFP xenografted animals. Tumor models employing surgical orthotopic implantation (SOI) into the organ of origin of the original tumor are regarded as representative of cancer progression and metastasis in humans. Orthotopic implantation of H-460 increases the rate of tumor metastasis.
This experiment is carried out as described in Example 1 above, with the following modifications. To aid in identification and scoring of metastasis, the human H-460 lung cancer cell line was replaced by genetically-engineered tumors of GFP-transfected H-460 cells. 1-2 mm^3 H460-GFP lung tumor fragments were implanted by surgical orthotopic implantation (SOI) and sutured directly into lung tissue. (Yang et al., (1998) Cancer Res 58:4217-4221.) Dosing was initiated immediately after successful confirmation of tumor take by fluorescent GFP imaging (˜5 days following tumor implantation). Doxorubicin (DOX, 7.5 mg/kg, i.v. administration) was used as a chemotherapy control, and was administered on treatment days 3, 7, and 11.
In addition to weekly caliper measurement of primary tumor size, GFP imaging was performed on animals to monitor primary tumor progression and metastasis, starting the first day of treatment. Study endpoints were reached when an average tumor size of 2 cc or three morbid mice appear in any one group, whichever occurs first, regardless of treatment duration. Each animal was checked daily for mortality or signs of morbidity. Morbid animals were frozen. All animals, including dead animals, were examined by GFP imaging for primary tumor and metastasis at necropsy. Imaging and caliper measurements were used to determine the effects of treatment. Primary tumors were excised, measured and weighed at necropsy. Blood samples were taken during terminal sacrifice and complete blood counts (CBC) and reticulocyte analysis were performed.
Tumor metastasis is associated with increased morbidity and mortality in humans with metastatic cancer and in animal models of metastatic cancer. […] The increased morbidity and mortality were recorded and animals were preserved for subsequent necropsy. The study was terminated after >3 animals were found morbid in the vehicle group on treatment day 14, at which point the remaining animals were sacrificed to evaluate and compare tumor progression in the various treatment groups.
To determine metastatic frequency, the thoracic and abdominal cavities of animals were examined by fluorescent imaging.

[4] = tested on: human H-460 lung tumors; test: Subcutaneously implanted human H-460 lung tumor mouse xenograft (Example 1); type: in vivo; conditions: 20 mg/kg PO
Source text: Immuno-compromised athymic CD-1 nu/nu nude mice males (5-6 weeks old) were used in this study (Charles River Laboratories, Wilmington, Mass.). Animals were maintained in a HEPA-filtered environment during the experimental period. Cages, food, and bedding were autoclaved. Animal diets were obtained from Harlan Teklad (Madison, Wis.). […] The human H460 lung cancer cell line used was obtained from the National Cancer Institute. (Brower et al., (1986) Cancer Res 46:798-806.) Xenografted H-460 tumors are sensitive to chemotherapeutics commonly used in treatment of lung cancer. […] A stock tumor was established by subcutaneously injecting a cell suspension into nude mice. The resulting tumor was maintained in nude mice subcutaneously as tumor stock prior to use. Tumor implantation was performed when the stock tumors were in log phase of growth. Before implantation, tumor tissue was harvested from stock mice and placed in RPMI-1640 medium. Necrotic tissues were dissected away and viable tissues were cut into 1-2 mm^2 pieces. Tumor fragments were then transplanted subcutaneously to the right flank of the nude mice. Treatment (administration of compounds of the present invention) was started when the inoculated tumors reached approximately 100 mm^3, and continued for four weeks. […] [table] Sizes of the primary tumors were measured through the skin with calipers once per week. […] Body weight of the mice in each group was also measured once per week during the experimental period. All animals were sacrificed following thirty-two days of treatment. Primary tumors were excised and weighed on an electronic balance. Blood samples were taken during terminal sacrifice and placed in microhematocrit tubes containing EDTA. Complete Blood Counts (CBC) and reticulocyte analysis were performed with the Cell Dyn 3700 analyzer (Abbott Diagnostics), as described by the manufacturer.

| SMILES | A549 mean tumor volume ([1]; week 5, 20 mg/kg PO) [mm^3] | A549 mean tumor volume ([1]; week 6, 20 mg/kg PO) [mm^3] | A549 mean tumor volume ([1]; week 7, 20 mg/kg PO) [mm^3] | A549 mean tumor volume ([1]; week 8, 20 mg/kg PO) [mm^3] | A549 mean tumor volume ([1]; week 9, 20 mg/kg PO) [mm^3] | Metastatic Incidence (proportion of animals exhibiting mediastinal lymph node metastasis) [3] | proportion of surviving animals ([3]; treatment day 9) | proportion of surviving animals ([3]; treatment day 11) | proportion of surviving animals ([3]; treatment day 12) | proportion of surviving animals ([3]; treatment day 13) | proportion of surviving animals ([3]; treatment day 14) | other results |
| --- | --- | --- | --- | --- | --- | --- | --- | --- | --- | --- | --- | --- |
| COc1ccc(Oc2ccc3c(O)c(C(=O)NCC(=O)O)ncc3c2)cc1 [Compound C, {[4-Hydroxy-7-(4-methoxy-phenoxy)-isoquinoline-3-carbonyl]-amino}-acetic acid] | 246 | 304 | 341 | 402 | 429 | 5/10 | 10/10 | 10/10 | 9/10 | 8/10 | 8/10 | mean animal body weight ([2]; day 0): 25.7 grams; mean animal body weight ([2]; day 10): 29.4 grams; mean animal body weight ([2]; day 17): 29.9 grams; mean animal body weight ([2]; day 24): 31.0 grams; mean animal body weight ([2]; day 31): 30.9 grams; mean tumor volume ([4]; day 0): 91 mm^3; mean tumor volume ([4]; day 10): 638 mm^3; mean tumor volume ([4]; day 17): 1365 mm^3; mean tumor volume ([4]; day 24): 2239** mm^3; mean tumor volume ([4]; day 31): 2373** mm^3; Mean Tumor Weight at Necropsy ([4]; day 32): 2.35 g |
| Cc1nc(C(=O)NCC(=O)O)c(O)c2ccc(Oc3ccccc3)cc12 [Compound D, [(4-Hydroxy-1-methyl-7-phenoxy-isoquinoline-3-carbonyl)-amino]-acetic acid] | 272 | 304 | 373 | 411 | 466 | 9/10 | 10/10 | 9/10 | 9/10 | 9/10 | 9/10 | tumor weight at necropsy, Mean ([1]; 6 mg/kg PO): 0.51 g; A549 mean tumor volume ([1]; week 0, 6 mg/kg PO): 109 mm^3; A549 mean tumor volume ([1]; week 1, 6 mg/kg PO): 137 mm^3; A549 mean tumor volume ([1]; week 2, 6 mg/kg PO): 178 mm^3; A549 mean tumor volume ([1]; week 3, 6 mg/kg PO): 209 mm^3; A549 mean tumor volume ([1]; week 4, 6 mg/kg PO): 263 mm^3; A549 mean tumor volume ([1]; week 5, 6 mg/kg PO): 292 mm^3; A549 mean tumor volume ([1]; week 6, 6 mg/kg PO): 339 mm^3; A549 mean tumor volume ([1]; week 7, 6 mg/kg PO): 375 mm^3; A549 mean tumor volume ([1]; week 8, 6 mg/kg PO): 431 mm^3; A549 mean tumor volume ([1]; week 9, 6 mg/kg PO): 476 mm^3 |
| O=C(O)CNC(=O)c1ncc2cc(Oc3ccc(F)cc3)ccc2c1O [Compound E, {[7-(4-fluoro-phenoxy)-4-hydroxy-isoquinoline-3-carbonyl]-amino}-acetic acid] | – | – | – | – | – | – | 9/10 | 9/10 | 9/10 | 8/10 | 8/10 | – |
